In patent US20150148311A1, “NON-SYSTEMIC TGR5 AGONISTS” (Ardelyx, Inc., priority 2011, published 2015):
Read-outs that look alike come from different tables or passages of the source.

Key:
human IBAT = biological target: T1, human IBAT (Homo sapiens, UniProt Q12908); test: IBAT counter screen, [3H]taurocholic acid uptake in IBAT-transfected HEK293 cells; type: cell-based
T1 construct: expressed in transfected cells; host or cells: HEK293
T1 sequence (Q12908 1-348): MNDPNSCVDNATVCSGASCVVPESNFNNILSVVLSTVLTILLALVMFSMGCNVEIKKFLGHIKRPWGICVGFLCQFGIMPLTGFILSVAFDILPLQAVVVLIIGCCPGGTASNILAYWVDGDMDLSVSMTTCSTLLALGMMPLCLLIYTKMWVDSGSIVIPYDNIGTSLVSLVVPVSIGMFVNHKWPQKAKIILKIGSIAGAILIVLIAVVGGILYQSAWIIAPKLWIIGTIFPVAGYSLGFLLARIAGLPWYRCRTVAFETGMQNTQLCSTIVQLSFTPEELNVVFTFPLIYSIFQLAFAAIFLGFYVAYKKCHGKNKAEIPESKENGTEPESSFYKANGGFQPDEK
Description: Following a 40-min incubation, the solution was removed, and the cells were washed twice with uptake buffer. Cells were lysed by addition of 20 μL 0.1% Tween 80 followed by 100 μL scintillation fluid and counted using a TopCount (Perkin Elmer).

[1] = Compound plasma concentration, LC-MS/MS, 8 h post dose; type: in vivo; conditions: 30 mg/kg; for Number of Mice with Plasma Concentration < LLOQ: mice below LLOQ / mice in group; for concentration at 8 h: male, C57BL/6, mouse, mice, plasma, read-out: Mean Example Plasma Concentration
Description: (§1) Eight hours later, each mouse was heavily anesthetized with isoflurane, the peritoneal cavity was opened and the gallbladder, with its entire contents, was carefully excised and weighed. Blood was collected from the left ventricle of the heart and processed to plasma in EDTA-coated tubes containing aprotinin and DPPIV inhibitor for measurement of total GLP-1 (K150FCC; Meso Scales Discovery, Gaithersburg Md.).
Plasma samples were treated with acetonitrile containing an internal standard, precipitated proteins removed by centrifugation. Supernatants were analyzed by LC-MS/MS and compound concentrations were determined by interpolated from a standard curve prepared in plasma.

[2] = Compound concentration in gall bladder, LC-MS/MS, 8 h post dose; type: in vivo; conditions: 30 mg/kg; for Number of Mice with Gallbladder Concentration < LLOQ: mice below LLOQ / mice in group; for concentration at 8 h: male, C57BL/6, mouse, with contents, mice, gallbladder homogenate, read-out: Mean Example Gallbladder Concentration
Description: as §1
Compound concentrations in the gall bladder were determined as follows: each mouse was heavily anesthetized with isoflurane, the peritoneal cavity was opened and the gallbladder, with its entire contents, was carefully excised. After harvest, gall bladders were homogenized in 100 μL water using a micro-homogenizer. Samples of homogenate were diluted 1:5 in water and precipitated with three volumes of neat acetonitrile. After centrifugation, supernatants were analyzed by LC-MS/MS. The level of test compound present in gall bladder samples was interpolated from a standard curve for each individual compound prepared in a matrix of gallbladder homogenate from vehicle treated animals.

human TGR5 = biological target: T2, human TGR5 (Homo sapiens, UniProt Q8TDU6); test: Cell-based TGR5 assay, HEK293 cells stably expressing human TGR5, cAMP by HTRF; conditions: 0.05 nM to 10 μM
T2 construct: expressed in transfected cells
T2 sequence (Q8TDU6 1-330): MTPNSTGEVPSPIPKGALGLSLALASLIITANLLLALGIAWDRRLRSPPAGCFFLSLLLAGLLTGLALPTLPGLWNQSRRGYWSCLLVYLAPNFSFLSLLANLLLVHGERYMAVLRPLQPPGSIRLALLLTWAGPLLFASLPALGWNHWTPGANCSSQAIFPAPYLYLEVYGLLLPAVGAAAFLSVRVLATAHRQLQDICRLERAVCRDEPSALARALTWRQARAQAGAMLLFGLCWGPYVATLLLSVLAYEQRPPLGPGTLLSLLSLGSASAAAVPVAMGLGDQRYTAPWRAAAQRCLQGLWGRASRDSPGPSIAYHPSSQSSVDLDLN
Method in brief: (§2)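 cAMP HTRF read-out, converted to concentration via standard curve, after a 30 min, 37 °C compound exposure in HBSS with 10 mM HEPES pH 7.4 and 0.5 mM IBMX, compounds serially diluted 3-fold from 10 mM DMSO stock then 100-fold. Cells: stable human TGR5 HEK293, or NCI-H716 expressing TGR5 endogenously.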

total GLP-1 = test: In vivo GLP-1 secretion, plasma total GLP-1 8 h post dose; conditions: Mus musculus, C57BL/6 male mice, food removed, plasma total GLP-1 eight hours after dosing, read-out: GLP-1 fold change over vehicle, Mean
Text: as §1

C57BL/6 male mice = test: In vivo gallbladder measurement (weight) 8 h post dose; conditions: 30 mg/kg; for Gallbladder weight/body weight fold change over vehicle, Significance: 8 h, vs. vehicle, one-way ANOVA, Dunnett's test; for Gallbladder weight/body weight fold change over vehicle, Mean: food removed, eight hours after dosing
Text: as §1

[3] = biological target: T3, endogenously expressed TGR5 in NCI H716 (Homo sapiens, UniProt Q8TDU6); test: Cell-based TGR5 assay, NCI-H716 cells endogenously expressing human TGR5, cAMP by HTRF; conditions: 30 min at 37 C, 22 nM to 50 μM, read-out: pEC50 endogenously expressed TGR5 in NCI H716 (converted)
T3 construct: human caecum carcinoma cell line NCI-H716 which endogenously expresses human TGR5; endogenous in cells; host or cells: NCI-H716
T3 sequence (Q8TDU6 1-330): T2 sequence (Q8TDU6 1-330)
Method in brief: as §2

[4] = pEC50 Human TGR5, HEK293 cells stably expressing human TGR5, 30 min at 37 C
[5] = read-out: pEC50 human IBAT (converted)
[6] = HEK293 cells stably expressing human TGR5, 30 min at 37 C, read-out: pEC50 Human TGR5 (converted)

Number of Mice with Plasma Concentration < LLOQ [1]	concentration at 8 h [1] [ng/mL]	Number of Mice with Gallbladder Concentration < LLOQ [2]	concentration at 8 h [2] [nM]	EC50 (human IBAT; [5]) [nM]	EC50 (human TGR5; [6]) [nM]	EC50 [3] [nM]	SMILES	other results
0/8	28.1	0/8	3920	> 25100	–	–	O=C(CCCCc1cc(Cl)c(CN2CSC[C@H]2C(=O)N2CCN(C3CC3)c3ccccc32)cc1Cl)N[C@@H](C(=O)O)[C@@H](O)[C@H](O)[C@H](O)CO [Example 240]	EC50 (human TGR5; [4]): < 100 nM
2/8	1.4	8/8	< 12	–	< 100	–	O=C(OC1(C(=O)N2CCN(C3CC3)c3ccccc32)CC1)c1cc(Cl)ccc1Cl [Example 166, 1-(4-cyclopropyl-1,2,3,4-tetrahydroquinoxaline-1-carbonyl)cyclopropyl 2,5-dichlorobenzoate]	response vs control in vivo at 30 mg/kg (total GLP-1): 150%; Gallbladder weight/body weight fold change over vehicle, Significance (C57BL/6 male mice): n.s.; Gallbladder weight/body weight fold change over vehicle, Mean (C57BL/6 male mice): 1.2 fold change over vehicle
–	–	–	–	> 25100	1260 to 50100	> 50100	O=C(COc1cc(Cl)ccc1Cl)N1CCN(C2CC2)c2ccccc21 [Example 4, 1-(4-cyclopropyl-3,4-dihydroquinoxalin-1(2H)-yl)-2-(2,5-dichlorophenoxy)ethanone]	–
–	–	–	–	> 25100	< 100	126 to 1000	O=C(C1=C(Oc2cc(Cl)ccc2Cl)CCCC1)N1CCN(C2CC2)c2ccccc21 [Example 29, (4-cyclopropyl-3,4-dihydroquinoxalin-1(2H)-yl)(2-(2,5-dichlorophenoxy)cyclohex-1-enyl)methanone]	–
–	–	–	–	> 25100	1260 to 50100	1260 to 50100	O=C([C@@H]1CCCCN1C(=O)c1cc(Cl)ccc1Cl)N1CCN(C2CC2)c2ccccc21 [Example 13, (S)-(2-(4-cyclopropyl-1,2,3,4-tetrahydroquinoxaline-1-carbonyl)piperidin-1-yl)(2,5-dichlorophenyl)methanone]	–
–	–	–	–	> 25100	1260 to 50100	1260 to 50100	O=C(c1cccc(OCc2cc(Cl)ccc2Cl)n1)N1CCN(C2CC2)c2ccccc21 [Example 63, 1-cyclopropyl-4-([6-[(2,5-dichlorophenyl)methoxy]pyridin-2-yl]carbonyl)-1,2,3,4-tetrahydroquinoxaline]	–
7/8	–	0/8	–	> 25100	–	–	Cn1c(C(=O)NC[C@H](O)[C@@H](O)[C@H](O)[C@H](O)CO)cnc1SCc1cc(Cl)c(CN2CSC[C@H]2C(=O)N2CCN(C3CC3)c3ccccc32)cc1Cl [Example 175, 2-((2,5-dichloro-4-(((R)-4-(4-cyclopropyl-1,2,3,4-tetrahydroquinoxaline-1-carbonyl)thiazolidin-3-yl)methyl)benzyl)thio)-1-methyl-N-((2S,3R,4R,5R)-2,3,4,5,6-pentahydroxyhexyl)-1H-imidazole-5-carboxamide]	–
–	–	–	–	> 25100	1260 to 50100	1260 to 50100	O=C(c1cccc(=O)n1Cc1cc(Cl)ccc1Cl)N1CCN(C2CC2)c2ccccc21 [Example 64, 6-[(4-cyclopropyl-1,2,3,4-tetrahydroquinoxalin-1-yl)carbonyl]-1-[(2,5-dichlorophenyl)methyl]-1,2-dihydropyridin-2-one]	–
–	–	–	–	> 25100	< 100	< 100	O=C(N1CCN(C2CC2)c2ccccc21)C1(NCc2cc(Cl)ccc2Cl)CCC1 [Example 56]	–
–	–	–	–	> 25100	< 100	126 to 1000	COc1ccccc1N(C)C(=O)C1(OCc2cc(Cl)ccc2Cl)CC1 [Example 36, 1-(2,5-dichlorobenzyloxy)-N-(2-methoxyphenyl)-N-methylcyclopropanecarboxamide]	–
0/8	3.6	0/8	1300	> 25100	–	–	O=C(NCCCCCc1cc(Cl)c(CN2CSC[C@H]2C(=O)N2CCN(C3CC3)c3ccccc32)cc1Cl)NC(CO)(CO)CO [Example 198]	Gallbladder weight/body weight fold change over vehicle, Significance (C57BL/6 male mice): * (* p < 0.05 vs. vehicle; One-way ANOVA followed by Dunnett's test); Gallbladder weight/body weight fold change over vehicle, Mean (C57BL/6 male mice): 1.9 fold change over vehicle
8/8	< 0.5	0/8	600	> 25100	–	–	O=C(O)CNC(=O)CNC(=O)CNC(=O)CCCCc1cc(Cl)c(CN2CSC[C@H]2C(=O)N2CCN(C3CC3)c3ccccc32)cc1Cl [Example 228]	EC50 (human TGR5; [4]): < 100 nM
–	–	–	–	> 25100	1260 to 50100	1260 to 50100	O=C([C@@H]1C2CC2CN1Cc1cc(Cl)ccc1Cl)N1CCN(C2CC2)c2ccccc21 (stereo partly drawn) [Example 24, (4-cyclopropyl-3,4-dihydroquinoxaline-1(2H)-yl)((2S)-3-(2,5-dichlorobenzyl)-3-azabicyclo[3.1.0]hexan-2-yl)methanone]	–
–	–	–	–	> 25100	126 to 1000	1260 to 50100	COc1cccnc1N(C)C(=O)C1(OCc2cc(Cl)ccc2Cl)CC1 [Example 37, 1-(2,5-dichlorobenzyloxy)-N-(3-methoxypyridin-2-yl)-N-methylcyclopropanecarboxamide]	–
–	–	–	–	> 25100	126 to 1000	126 to 1000	CC(C)(OCc1cc(Cl)ccc1Cl)C(=O)N1CCN(C2CC2)c2ccccc21 [Example 1, 1-(4-cyclopropyl-1,2,3,4-tetrahydroquinoxalin-1-yl)-2-[(2,5-dichlorophenyl)methoxy]-2-methylpropan-1-one]	–
–	–	–	–	> 25100	126 to 1000	1260 to 50100	CN(Cc1cc(Cl)ccc1Cl)C1(C(=O)N2CCN(C3CC3)c3ccccc32)CC1 [Example 27, (4-cyclopropyl-3,4-dihydroquinoxalin-1(2H)-yl)(1-((2,5-dichlorobenzyl)(methyl)amino)cyclopropyl)methanone]	–
3/8	1.2	0/8	4400	> 25100	–	–	CN(C[C@H](O)[C@@H](O)[C@H](O)[C@H](O)CO)C(=O)CCCCc1cc(Cl)c(CN2CSC[C@H]2C(=O)N2CCN(C3CC3)c3ccccc32)cc1Cl [Example 238]	–

SMILES	Number of Mice with Plasma Concentration < LLOQ [1]	concentration at 8 h [1] [ng/mL]	Number of Mice with Gallbladder Concentration < LLOQ [2]	concentration at 8 h [2] [nM]	EC50 (human IBAT; [5]) [nM]	EC50 (human TGR5; [6]) [nM]	EC50 [3] [nM]	other results
O=C(O)CNC(=O)[C@H](CSSC[C@H](NC(=O)CC[C@H](NC(=O)CCCCc1cc(Cl)c(CN2CSC[C@H]2C(=O)N2CCN(C3CC3)c3ccccc32)cc1Cl)C(=O)O)C(=O)NCC(=O)O)NC(=O)CC[C@H](NC(=O)CCCCc1cc(Cl)c(CN2CSC[C@H]2C(=O)N2CCN(C3CC3)c3ccccc32)cc1Cl)C(=O)O [Example 241]	8/8	< 10	8/8	< 60	–	–	–	EC50 (human IBAT): > 25100 nM; EC50 (human TGR5; [4]): < 100 nM
